Reference: patent US5972942A, “Inhibitors of farnesyl-protein transferase” (Merck & Co., Inc., priority 1997, dated 1999)
Where a name gives a salt, the structure may show the parent alone.

Molecular target: T1, human FPTase (Homo sapiens, UniProt P49354+P49356)
T1 construct: made in house
Assay: In vitro inhibition of ras farnesyl transferase (human FPTase assay)
Type: biochemical
Settings: 100 nM Ras-CVIM, [3H]-farnesyl diphosphate, 30 min, read-out: IC50, inhibitory activity against human FPTase

T1 sequence (P49356 whole entry, one chain of several): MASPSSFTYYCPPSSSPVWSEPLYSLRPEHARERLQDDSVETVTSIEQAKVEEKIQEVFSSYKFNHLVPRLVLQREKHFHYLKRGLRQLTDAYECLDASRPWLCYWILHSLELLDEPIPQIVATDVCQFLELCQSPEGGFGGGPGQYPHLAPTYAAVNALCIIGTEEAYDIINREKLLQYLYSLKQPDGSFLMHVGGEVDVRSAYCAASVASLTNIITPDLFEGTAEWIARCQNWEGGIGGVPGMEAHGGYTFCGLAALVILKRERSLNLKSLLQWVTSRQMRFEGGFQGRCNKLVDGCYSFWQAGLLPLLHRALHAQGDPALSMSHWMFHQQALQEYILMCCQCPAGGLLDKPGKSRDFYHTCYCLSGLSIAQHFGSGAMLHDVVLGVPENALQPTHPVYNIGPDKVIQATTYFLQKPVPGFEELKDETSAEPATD

- IC50: ≤ 50 µM
Structure (SMILES): CCCC[C@H]1CN(CC(F)(F)F)C(=O)CN1Cc1cncn1Cc1ccc(C#N)cc1 [Example 1, 2(S)-n-Butyl-1-[1-(4-cyanobenzyl)-5-imidazolylmethyl]-4-(2,2,2-trifluoroethyl)piperazin-5-one dihydrochloride]
